Assay [1] relates to ERK phosphorylation (pERK) induced by KRAS G12D mutation. The assay is described as follows: Inhibitory activity against ERK phosphorylation (pERK) induced by KRAS G12D mutation, immunofluorescence assay in AsPC-1 cells. It is filed as cell-based. To be noted: Homo sapiens, ASPC1, 3 h drug treatment, pERK (Thr202/Tyr204) signal normalized to DAPI. An outline of the steps: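 AsPC-1 cells attached 16 h, then treated 3 h with 3-fold dilutions from 10 μM top. Fixed, permeabilized, immunostained for pERK (Thr202/Tyr204) with Alexa 488 secondary; high-content imaging, signal normalized to DAPI and to DMSO, IC50 from four-parameter fit.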

Assay [2] concerns the target T1, GppNHp-KRAS G12D mutant protein (Homo sapiens, UniProt P01116, G12D).
T1 construct: purchased Daegu Gyeongbuk Medical Innovation Foundation (DGMIF), made to order
Description: Differential scanning fluorimetry (DSF) binding affinity to GppNHp-KRAS G12D mutant protein. To be noted: DSF thermal shift, 10 μM compound, 4 μg KRAS protein, 50 mM HEPES (pH 7.5). An outline of the steps: (§1)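 Each sample held 4 μg recombinant KRAS G12D (GDP- or GppNHp-bound) and 10 μM compound, incubated 30 min at room temperature before adding 2× SYPRO Orange. The GDP form was run in kit buffer, the GppNHp form in 50 mM HEPES pH 7.5. Melt was 25–99 °C at 0.05 °C/s (580/623 nm), reported as ΔTm versus no compound.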

The subject of assay [3] is KRAS G12D mutant pancreatic cancer cell line AsPC-1. Description: Cell viability assay using KRAS G12D mutant cells (AsPC-1, 3D culture, celltiter-glo 3D). To be noted: Homo sapiens, ASPC1, 5th day after compound treatment. It is filed as cell-based. An outline of the steps: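 AsPC-1 cells in 3D culture, 1000 cells/well, treated next day with 1/5 serial dilutions from 10 μM or 50 μM, 1:1 v/v. Viability read by CellTiter-Glo 3D on day 5, normalized to DMSO (100%) and untreated backgrounds; IC50 from four-parameter sigmoidal fit.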

The target of assay [4] is T2, GDP-KRAS G12D mutant protein (Homo sapiens, UniProt P01116, G12D).
T2 construct: purchased Daegu Gyeongbuk Medical Innovation Foundation (DGMIF), made to order
Description: Differential scanning fluorimetry (DSF) binding affinity to GDP-KRAS G12D mutant protein. To be noted: DSF thermal shift, 10 μM compound, 4 μg KRAS protein. An outline of the steps:
as §1
On the technique in general: In DSF a fluorescence change marks the thermal transition of the protein.

Molecules are shown by their SMILES.

Consider `CCc1c(F)ccc2cc(O)cc(-c3c(F)c4nc(OC[C@@]56CCCN5C[C@H](F)C6)nc(N5C[C@H]6CC[C@@H](C5)N6)c4c4cn(C)nc34)c12` [Example 93, 4-(9-((1R,5S)-3,8-diazabicyclo[3.2.1]octan-3-yl)-5-fluoro-7-(((2R,7aS)-2-fluorotetrahydro-1H-pyrrolizin-7a(5H)-yl)methoxy)-2-methyl-2H-pyrazolo[4,3-n]quinazolin-4-yl)-5-ethyl-6-fluoronaphthalen-2-ol], for which the IC50 (in general, the concentration needed to halve the response being measured) in assay [1] is 0.016 µM; in assay [3], 0.038 µM. The “GppNHp-KRAS G12D (ΔTmD, ° C.)” value in assay [2] is 8.72 °C. Further, in assay [4], the “GDP-KRAS G12D (ΔTmD, ° C.)” value came out at 14.20 °C.
The corresponding values for `C#Cc1c(F)ccc2cc(O)cc(-c3c(F)c4nc(OC[C@@]56CCCN5C/C(=C\F)C6)nc(N5C[C@H]6CC[C@@H](C5)N6)c4c4cn(C)nc34)c12` [Example 94, 4-(9-((1R,5S)-3,8-diazabicyclo[3.2.1]octan-3-yl)-5-fluoro-7-(((S,Z)-2-(fluoromethylene)tetrahydro-1H-pyrrolizin-7a(5H)-yl)methoxy)-2-methyl-2H-pyrazolo[4,3-f]quinazolin-4-yl)-5-ethynyl-6-fluoronaphthalen-2-ol] are 0.018 µM, 0.014 µM, 12.28 °C and 17.46 °C.
On the same counts, the results for `Cn1cc2c(n1)c(-c1cc(O)cc3ccc(F)c(F)c13)c(F)c1nc(OC[C@@]34CCCN3C[C@H](F)C4)nc(N3C[C@H]4CC[C@@H](C3)N4)c12` [Example 95, 4-(9-((1R,5S)-3,8-diazabicyclo[3.2.1]octan-3-yl)-5-fluoro-7-(((2R,7aS)-2-fluorotetrahydro-1H-pyrrolizin-7a(5H)-yl)methoxy)-2-methyl-2H-pyrazolo[4,3-f]quinazolin-4-yl)-5,6-difluoronaphthalen-2-ol] are 0.082 µM, 0.263 µM, 7.54 °C and 11.83 °C.
On to `C#Cc1c(F)ccc2cc(O)cc(-c3c(F)c4nc(OC[C@@]56CC[C@@H](COC)N5CC(=C)C6)nc(N5C[C@H]6CC[C@@H](C5)N6)c4c4cn(C)nc34)c12` [Example 96, 4-(9-((1R,5S)-3,8-diazabicyclo[3.2.1]octan-3-yl)-5-fluoro-7-(((5S,7aS)-5-(methoxymethyl)-2-methylenetetrahydro-1H-pyrrolizin-7a(5H)-yl)methoxy)-2-methyl-2H-pyrazolo[4,3-n]quinazolin-4-yl)-5-ethynyl-6-fluoronaphthalen-2-ol], for which the results for the IC50 in assay [1] and in assay [3] were 0.02 µM and 0.011 µM, respectively. In assay [2], the “GppNHp-KRAS G12D (ΔTmD, ° C.)” value is 10.64 °C. Moreover, the “GDP-KRAS G12D (ΔTmD, ° C.)” value in assay [4] was found to be 15.09 °C.

Values taken from patent US20260209249A1, “NOVEL TRICYCLIC COMPOUND AS KRAS G12D INHIBITOR, AND USE THEREOF” (SK Biopharmaceuticals Co., priority 2022, published 2026).
